How the values were obtained:
Test in all cases: biochemical
MST1 = molecular target: T1, MST1 (Homo sapiens, UniProt Q13043)
T1 sequence (Q13043 1-487): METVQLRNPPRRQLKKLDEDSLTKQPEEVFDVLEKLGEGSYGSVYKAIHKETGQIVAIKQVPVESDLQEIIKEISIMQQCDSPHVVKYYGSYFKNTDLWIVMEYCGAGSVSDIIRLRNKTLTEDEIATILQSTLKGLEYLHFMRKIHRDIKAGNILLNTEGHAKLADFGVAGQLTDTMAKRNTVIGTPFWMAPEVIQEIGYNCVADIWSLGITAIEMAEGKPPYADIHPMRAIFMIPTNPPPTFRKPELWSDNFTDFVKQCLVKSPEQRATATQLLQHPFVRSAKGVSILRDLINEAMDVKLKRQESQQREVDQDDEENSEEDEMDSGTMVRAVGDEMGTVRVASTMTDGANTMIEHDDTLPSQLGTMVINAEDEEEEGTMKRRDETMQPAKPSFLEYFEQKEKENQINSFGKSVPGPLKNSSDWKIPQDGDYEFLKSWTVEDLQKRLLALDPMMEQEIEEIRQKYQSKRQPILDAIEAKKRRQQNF

MST2 = molecular target: T2, MST2 (Homo sapiens, UniProt Q13188); conditions: 10 µM; binder
T2 sequence (Q13188 1-491): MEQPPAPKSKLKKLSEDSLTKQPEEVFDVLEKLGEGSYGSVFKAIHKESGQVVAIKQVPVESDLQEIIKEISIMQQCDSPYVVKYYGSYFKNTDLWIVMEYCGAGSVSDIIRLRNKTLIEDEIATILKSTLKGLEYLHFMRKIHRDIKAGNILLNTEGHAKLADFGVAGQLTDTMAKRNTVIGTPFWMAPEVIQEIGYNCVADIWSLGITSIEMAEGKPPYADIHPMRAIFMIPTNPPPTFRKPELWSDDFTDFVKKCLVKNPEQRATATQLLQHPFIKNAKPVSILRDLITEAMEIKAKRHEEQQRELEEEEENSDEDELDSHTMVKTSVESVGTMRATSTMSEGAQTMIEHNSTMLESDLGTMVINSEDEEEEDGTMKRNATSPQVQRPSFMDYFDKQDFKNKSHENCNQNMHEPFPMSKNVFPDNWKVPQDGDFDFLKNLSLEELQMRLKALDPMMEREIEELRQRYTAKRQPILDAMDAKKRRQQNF

MST4 = MST4 (Homo sapiens, UniProt Q9P289); conditions: 10 µM; binder
MST4, sequence (Q9P289 whole entry): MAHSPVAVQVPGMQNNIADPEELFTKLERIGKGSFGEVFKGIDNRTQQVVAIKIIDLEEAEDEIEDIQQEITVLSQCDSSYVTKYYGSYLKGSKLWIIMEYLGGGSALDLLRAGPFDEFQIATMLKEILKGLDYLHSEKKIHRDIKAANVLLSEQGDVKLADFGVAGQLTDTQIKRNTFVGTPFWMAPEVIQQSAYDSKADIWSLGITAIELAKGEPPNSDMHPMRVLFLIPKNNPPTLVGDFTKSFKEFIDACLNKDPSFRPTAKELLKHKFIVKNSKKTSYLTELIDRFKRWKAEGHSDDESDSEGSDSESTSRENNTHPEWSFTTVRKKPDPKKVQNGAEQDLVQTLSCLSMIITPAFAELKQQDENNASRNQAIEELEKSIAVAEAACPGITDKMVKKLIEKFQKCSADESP

Row | SMILES | ΔTm at 10 µM (MST1; read-out: dTm MST1) [°C] | dTm MST1 (MST1; 10 µM, binder) [°C] | dTm MST2 (MST2) [°C] | dTm MST4 (MST4) [°C]
1 | CN[C@@H]1C[C@H]2O[C@@](C)([C@@H]1OC)n1c3ccccc3c3c4c(c5c6ccccc6n2c5c31)C(=O)NC4 [Staurosporine] | 13.9 |  |  | 
2 | CNc1ncc2cc(-c3ccc(-c4ncccc4F)cc3Cl)c(=O)n(C[C@H]3OC[C@H](N)CO3)c2n1 [compound 1, MRIA9] |  | 1.8 | 2.5 | 2.7

From doi:10.1101/2023.03.24.534094v2 (biorxiv, 2023)
